Data reported in US20220401391A1, “METHODS AND COMPOSITIONS FOR TREATING PAIN” (Apkarian Technologies LLC, priority 2019, published 2022).
Entries after “also recorded” stand apart in the source; their conditions may differ.

How the values were obtained:
[1] = human, in vivo
Description: The study consisted of eight visits spread over ˜28 weeks, which included an initial screening/monitoring period (˜2 weeks), followed by a treatment period (12 weeks) and a post-treatment observational period (12 weeks). Safety and adverse events were assessed at each clinical visit, including vital signs. At each visit, researchers reminded participants to take their medication according to instructions. Safety was also assessed through blood screenings at baseline, while blood pressure, pulse and temperature were assessed at all study visits.
Adverse events (AEs) that occurred during treatment and those that occurred after treatment were differentiated. However, to account for potential late onset AEs or those related to withdrawal of medication, AEs occurring during a certain window after treatment were considered to be “during treatment”.
Analyses were done using MATLAB 2016a, JMP Pro version 13.2 (SAS Institute, Cary, N.C.) and SPSS version 25. Safety analyses included all participants who received at least one dose of the study drug.

[2] = test system: subacute back pain (SBP) participants; experiment: Double-blind randomized trial of LDP+NPX vs PLC+NPX in subacute back pain; phone NRS pain ratings; assay type: in vivo, human; conditions: for One-week average pain ratings, pain intensity (0-10), Mean ± SEM: phone NRS 0-10 scale
Source text: The main outcome measure was a Numerical Rating Scale (NRS),^19 where “0” corresponds to no pain and “10” indicates worst possible pain. On this scale, participants provided ratings of their current pain up to three times a day during study participation (6 months), via a smartphone app (phone NRS).
Treatment-related percentage residual pain was computed relative to the average phone-NRS score from the week preceding start of treatment, for every subject and every day, and then averaged across subjects for each treatment type (FIG. 2A). Over the treatment period, a rapid decrease in back pain intensity was observed that, in the NoTx group, stabilizes (with large fluctuations) at around 80% residual pain, while in the LDP+NPX and PLC+NPX groups residual pain continues to decrease for the duration of treatment, reaching a residual pain of about 50%. […] Remarkably in all three groups, the observed pain relief persisted after cessation of treatment, over the next 12 weeks.
This 24-week double-blind parallel randomized controlled trial was conducted at Northwestern University (Chicago, USA). Protocol and informed consent form were approved by Northwestern University IRB as well as NIDCR/NIH. All enrolled participants provided written informed consent. Safety and trial oversight were monitored by an independent data safety monitoring board and a clinical research organization, with NIDCR/NIH oversight. The trial was registered on ClinicalTrials.gov, under registry NCT01951105.
• Eligible subjects first underwent a brain imaging session and, using predefined brain-derived parameters, were stratified into high and low-risk subgroups for transitioning to CBP. Those in the low-risk category, who had 60% or higher probability of recovering naturally, entered the NoTx arm; the rest, who had less than 60% probability of recovering naturally, were randomized between a placebo-control arm, and a pharmacological treatment arm. A flexible dose escalation procedure was used and both researchers and participants were blinded to treatment type. Study medications were tapered off at week 12, and participants continued to be evaluated for another 12 weeks. At final visit, participants underwent a second brain scan.
The design was setup to evaluate safety, efficacy and gender dependence of the combination of carbidopa/levodopa (12.5 mg/50 mg-25 mg/100 mg-50 mg/200 mg, dose escalation based on response) plus naproxen 250 mg (LDP+NPX) administered three times a day, compared to placebo plus naproxen 250 mg (PLC+NPX) administered three times a day.
Treatment with carbidopa/levodopa was titrated up to 12.5 mg/50 mg three times/day over one week and then continued at that level for 4 weeks. If by the end of the initial 4-week period the participant “responded” [had >20% decrease in pain intensity from the average of all phone NRS ratings collected at baseline (between visit 1 and visit 3) to the average of all phone NRS ratings during those 5 weeks], the participant was maintained on that dose for the duration of the treatment period (12 weeks total). If there was no response, the carbidopa/levodopa dose was increased to 25 mg/100 mg three times/day for the following 4 weeks, at which time the pain status was re-evaluated (based on the average of all phone NRS rating during those four weeks, against baseline average). Again, if a response occurred, that dose was maintained in a blinded manner for the following 4 weeks of treatment; if not, further dose-titration carbidopa/levodopa occurred to 50 mg/200 mg three times/day for the final 4 weeks. When a participant experienced an adverse event at higher doses, the participant was given the next lower dose that s/he was able to tolerate and then maintained on that dose for the remainder of the 12-week dosing period. Naproxen dose (250 mg three times/day) remained constant for all participants throughout the study, except it was not given during the tapering down at the end of the study. […]

| Substance | Safety / tolerability in words [1] | Response rates across response criteria (80%-20% residual pain), in words ([2]; 3 and 6 months, by gender) | One-week average pain ratings, pain intensity (0-10), Mean ± SEM ([2]; 3 months (end of treatment)) | One-week average pain ratings, pain intensity (0-10), Mean ± SEM ([2]; 6 months (3 months after end of treatment)) | One-week average pain ratings, pain intensity (0-10), Mean ± SEM ([2]; BL (baseline)) | Efficacy by gender (residual pain, in words) ([2]; females vs males, residual pain at six months) | Males showing at least 80% improvement ([2]; males) [%] | Residual pain reached over duration of treatment ([2]; relative to average phone-NRS of week preceding treatment, 12-week treatment) |
| --- | --- | --- | --- | --- | --- | --- | --- | --- |
| levodopa/carbidopa [LDP] | No adverse effects specifically linked to LDP use were observed | – | – | – | – | – | – | – |
| placebo+naproxen [PLC+NPX] | – | less effective yielding similar response rates in males and females; also recorded: less effective and similar among males and females | 2.4 ± 0.4 | 2.2 ± 0.4 | 5.1 ± 0.3 | more effective than LDP+NPX in males | 38 | about 50% |
